Measurements as given in US8361993B2, “Hydroxy-bisphosphonic acid derivatives as vector targeting bone tissue” (Universite de Nantes, priority 2008, dated 2013).
Counter-ions that a name gives are not always drawn. Like-named read-outs stand apart in the source and are kept apart here.

Key:
POS-1 mouse osteosarcoma [1] = conditions: in vivo
murine fibroblast L929 = test: cells; format: cell-based; conditions: Mus musculus, L929, 72 h
POS-1 mouse osteosarcoma [2] = test: cells; format: cell-based; conditions: 72 h
different cell lines = test: in vitro cytotoxicity of the fluorescent molecule; format: cell-based
mice = test: administration of the fluorescent molecule in mice; conditions: mouse, in vivo
mice (Swiss strain) = test: in vivo bone tropism test in young mice, 4 weeks of treatment; conditions: 0.35 μmol/kg sub-cutaneously twice a week; for specific bone volume BV/TV, left femur / specific bone volume BV/TV, average of left and right femur / specific bone volume BV/TV, right femur: 4 weeks; for specific bone volume BV/TV, left femur: control 56.58%; for specific bone volume BV/TV, average of left and right femur: control 62.89%; for specific bone volume BV/TV, right femur: control 69.20%
[3] = test system: OSRGA osteosarcoma cell line; test: viability/cytotoxicity test on osteosarcoma line OSRGA; format: cell-based; conditions: rat osteosarcoma cell line
Protocol: (§1) The biological activities (viability/cytotoxicity test) of the molecules (III) and (IV) were tested in vitro on cultures of human, murine and rat osteosarcoma lines in comparison with normal cells (healthy osteoblasts from mouse calvaria).

[4] = test system: MG63 osteosarcoma cell line; test: viability/cytotoxicity test on osteosarcoma line MG63; format: cell-based; conditions: MG-63; human osteosarcoma cell line
Protocol: as §1

[5] = test system: POS1 osteosarcoma cell line; test: viability/cytotoxicity test on osteosarcoma line POS1; format: cell-based; conditions: mouse osteosarcoma cell line
Protocol: as §1

[6] = test system: Mouse osteosarcoma POS1 cells; test: in vivo osteolytic primitive bone tumor model, POS1 tumor fragments transplanted into para-osteal site; conditions: treated versus untreated (control) mice; FIG. 3
Protocol: Mouse osteosarcoma POS1 cells were injected in the pad of a 5-week old male mouse of the C3H/HeN strain. Fragments of the tumor which develops on this site are then transplanted into a para-osteal site in order to induce development of an osteolytic primitive bone tumor. The molecule (IV) was then injected as a cure of […] injections (IP) of 11.5 or 115 μmol/kg at 24 hr intervals from the 7th day (D7) after tumoral induction.

In the case of `NP(=O)(OCc1cccc(OCCCBr)c1)N(CCCl)CCCl` (centres unmarked) [Molecule 2], the survival rate (POS-1 mouse osteosarcoma [1]) is reported as “significant increase”, the IC50 (murine fibroblast L929; read-out: IC50 L929 (DMSO)) is reported as greater than 500 µM and the IC50 (murine fibroblast L929; read-out: IC50 L929 (ethanol)) is reported as 250 µM. The IC50 (POS-1 mouse osteosarcoma [2]; read-out: IC50 POS-1 (DMSO)) was 200 µM and the IC50 (POS-1 mouse osteosarcoma [2]; read-out: IC50 POS-1 (ethanol)) was 300 µM.
`CN(CCCOc1cccc(CN(C)S(=O)(=O)c2cccc3c(N(C)C)cccc23)c1)CCC(O)(P(=O)(O)O)P(=O)(O)O` [Molecule (II), 3-((3-(3-((5-dimethylamino)-N-methylnaphthalene-1-sulfonamido)methyl)phenoxy)propyl(methyl)amino)-1-hydropropane-1,1-diyldiphosphonic acid] was tested, and the “cytotoxic activity in vitro” value (different cell lines) was “did not have any cytotoxic activity” and the “cytotoxic activity after administration in mice” value (mice) was “did not either reveal any cytotoxic activity”.
For `CN(CCCOc1ccccc1)CCC(O)(P(=O)(O)O)P(=O)(O)O` [Molecule 4], the “specific bone volume BV/TV, left femur” value (mice (Swiss strain)) was 73.69%, the “specific bone volume BV/TV, average of left and right femur” value (mice (Swiss strain)) was 73.88% and the “specific bone volume BV/TV, right femur” value (mice (Swiss strain)) was 74.08%. For the same molecule, the “mineral density on radiographs” value (mice (Swiss strain); after 4 weeks, versus control mice, FIG. 2) was “increase in the mineral density”.
Work on `CN(CCCOc1cccc(COP(N)(=O)N(CCCl)CCCl)c1)CCC(O)(P(=O)(O)O)P(=O)(O)O` (centres unmarked) [Molecule (III), 3-((3-(3-((amino(bis(2-chloroethyl)amino)phosphoryloxy)methyl)phenoxy)propyl)(methyl)amino)-1-hydroxypropane-1,1-diyl-diphosphonic acid] yielded an IC50 [3] greater than 200 µM, an IC50 [4] greater than 200 µM and an IC50 [5] greater than 200 µM.
`CN(CCCOc1cccc(COP(N)(=O)N(CCCl)CCCl)c1)CCC(=O)OC(C)(C)C` (centres unmarked) [Molecule 3] showed an IC50 (murine fibroblast L929; read-out: IC50 L929 (DMSO)) of 500 µM, an IC50 (murine fibroblast L929; read-out: IC50 L929 (ethanol)) greater than 500 µM and an IC50 (POS-1 mouse osteosarcoma [2]; read-out: IC50 POS-1 (DMSO)) of 280 µM. It also gave an IC50 (POS-1 mouse osteosarcoma [2]; read-out: IC50 POS-1 (ethanol)) of 500 µM.
For `CN(CCCOc1cccc(COCCOP(N)(=O)N(CCCl)CCCl)c1)CCC(O)(P(=O)(O)O)P(=O)(O)O` (centres unmarked) [Molecule (IV), {3-[(3-{3-[6-amino-9-chloro-7-(2-chloroethyl)-6-oxido-2,5-dioxa-7-aza-6-phosphanon-1-yl]phenoxy}propyl)(methyl)amino]-1-hydroxypropane-1,1-diyl}biphosphonic acid], the IC50 [3] was greater than 500 µM, the IC50 [4] was greater than 500 µM and the “bone mineral density in the epiphyseal area (radiographs)” value [6] was “increase in the bone mineral density”. The IC50 [5] was greater than 500 µM.
In the case of `O=P(O)(O)C(O)(Cn1ccnc1)P(=O)(O)O` [Disodium salt of zoledronic acid, zoledronic acid, reference compound], the “specific bone volume BV/TV, left femur” value (mice (Swiss strain)) is reported as 72.72%, the “specific bone volume BV/TV, average of left and right femur” value (mice (Swiss strain)) is reported as 74.02% and the “specific bone volume BV/TV, right femur” value (mice (Swiss strain)) is reported as 75.33%. The “weight follow-up and general condition of the mice” value (mice (Swiss strain); after 4 weeks) was “no incidence on the weight follow-up, nor on the general condition”.
